{"source": "patent US11925768B2", "about": "“Method for decolonizing mammalian skin” (AVADIM HEALTH IP, INC., priority 2014, dated 2024)", "origin": "cited, not measured here", "conditions": "concentrations as low as", "data": [{"smiles": "O=S1(=O)CCN(CN2CCS(=O)(=O)NC2)CN1", "note": "[Taurolidine, taurolidine]", "values": [{"measurement": "concentration producing intense pain in most tissues", "value": "about 10 mg/ml"}]}]}
